Laboratory results reported in ChEMBL document CHEMBL1122972, “Angiotensin-converting enzyme inhibitors: synthesis and biological activity of acyl tripeptide analogues of enalapril” (J Med Chem, 1985).
pIC50: −log10 of the molar value. Square brackets hold non-standard residues; d marks the D form. Peptide text beside a SMILES is read from it. * marks the point of attachment. Hydrocinnamoyl = O=C(CCc1ccccc1)*; pGlu = O=C1CC[C@@H](C(=O)O)N1; Bz = O=C(c1ccccc1)*

Target: Angiotensin-converting enzyme (Homo sapiens, UniProt P12821)
Assay: In vitro inhibitory activity against Angiotensin I converting enzyme
Conditions: read-out: I50

Angiotensin-converting enzyme, sequence (P12821 whole entry): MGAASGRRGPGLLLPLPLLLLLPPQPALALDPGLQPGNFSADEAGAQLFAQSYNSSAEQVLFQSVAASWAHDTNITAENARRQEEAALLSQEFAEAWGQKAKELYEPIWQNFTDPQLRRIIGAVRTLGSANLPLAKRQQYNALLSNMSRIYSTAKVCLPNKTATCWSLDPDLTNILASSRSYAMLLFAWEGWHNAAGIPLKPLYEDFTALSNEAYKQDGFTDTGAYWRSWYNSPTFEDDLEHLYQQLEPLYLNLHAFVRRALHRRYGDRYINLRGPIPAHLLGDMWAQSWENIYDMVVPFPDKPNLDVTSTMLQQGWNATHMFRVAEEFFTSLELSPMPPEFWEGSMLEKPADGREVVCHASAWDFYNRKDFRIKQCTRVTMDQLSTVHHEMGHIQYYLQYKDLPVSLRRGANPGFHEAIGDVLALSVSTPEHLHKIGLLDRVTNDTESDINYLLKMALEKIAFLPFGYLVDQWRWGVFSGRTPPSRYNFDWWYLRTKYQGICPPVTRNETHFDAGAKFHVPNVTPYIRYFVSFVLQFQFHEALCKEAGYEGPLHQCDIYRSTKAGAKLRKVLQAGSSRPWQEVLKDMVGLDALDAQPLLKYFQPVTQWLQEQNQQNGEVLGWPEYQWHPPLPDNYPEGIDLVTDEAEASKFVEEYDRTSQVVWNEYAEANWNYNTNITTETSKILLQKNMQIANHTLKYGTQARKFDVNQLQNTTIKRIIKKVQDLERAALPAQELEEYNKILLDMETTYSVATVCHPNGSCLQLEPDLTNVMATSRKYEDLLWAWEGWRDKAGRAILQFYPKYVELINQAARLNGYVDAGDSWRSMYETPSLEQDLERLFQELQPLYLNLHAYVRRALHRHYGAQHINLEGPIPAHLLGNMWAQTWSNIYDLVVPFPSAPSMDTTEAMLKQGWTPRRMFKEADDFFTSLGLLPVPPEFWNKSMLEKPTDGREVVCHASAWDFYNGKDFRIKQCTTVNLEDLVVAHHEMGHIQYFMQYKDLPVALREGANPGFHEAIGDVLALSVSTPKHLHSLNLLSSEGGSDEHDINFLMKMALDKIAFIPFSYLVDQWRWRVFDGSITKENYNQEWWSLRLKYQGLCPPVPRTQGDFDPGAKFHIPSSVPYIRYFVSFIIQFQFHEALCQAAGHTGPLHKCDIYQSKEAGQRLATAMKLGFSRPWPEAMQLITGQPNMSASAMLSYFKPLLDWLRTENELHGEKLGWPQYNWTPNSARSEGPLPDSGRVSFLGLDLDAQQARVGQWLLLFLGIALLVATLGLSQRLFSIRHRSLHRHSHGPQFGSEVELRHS

| SMILES | pIC50 |
| --- | --- |
| C[C@H](N[C@@H](CNC(=O)c1ccccc1)C(=O)O)C(=O)N1CCC[C@H]1C(=O)O | 7.77 |
| C[C@H](NC(=O)[C@H](Cc1ccccc1)NC(=O)[C@H](CCCCN)NC(=O)[C@@H]1CCC(=O)N1)C(=O)N1CCC[C@H]1C(=O)O ([pGlu]KFAP-OH) | 5.30 |
| C[C@H](NC(=O)[C@@H](N)Cc1ccccc1)C(=O)N1CCC[C@H]1C(=O)O (H-Phe-Ala-Pro-OH) | 5.85 |
| CC(=O)N1CCCC1C(NC(C)C(=O)N1CCCC1C(=O)O)C(=O)O (centres undefined) | 8.03 |
| CC(NC(C(=O)O)C1CCCN1C(=O)c1ccccc1)C(=O)N1CCCC1C(=O)O (centres undefined) | 8.54 |
| C[C@H](NC(CNC(=O)c1ccccc1)C(=O)O)C(=O)N1CCC[C@H]1C(=O)O (some centres undefined) | 7.40 |
| O=C(CCC(=O)N1CCCC1C(=O)O)CCc1ccccc1 (centres undefined) | 2.59 |
| C[C@H](NC(=O)[C@H](Cc1ccccc1)NC(=O)c1ccccc1)C(=O)N1CCC[C@H]1C(=O)O (Bz-Phe-Ala-Pro-OH) | 5.57 |
| C[C@H](N[C@H](C(=O)O)[C@H](Cc1ccccc1)NC(=O)c1ccccc1)C(=O)N1CCC[C@H]1C(=O)O | 8.11 |
| C[C@H](N[C@H](C[C@H](Cc1ccccc1)NC(=O)c1ccccc1)C(=O)O)C(=O)N1CCC[C@H]1C(=O)O | 8.32 |
| C[C@H](N[C@@H](C[C@H](Cc1ccccc1)NC(=O)c1ccccc1)C(=O)O)C(=O)N1CCC[C@H]1C(=O)O | 8.52 |
| C[C@H](NC(=O)CCc1ccccc1)C(=O)N1CCC[C@H]1C(=O)O (Hydrocinnamoyl-Ala-Pro-OH) | 3.48 |
| C[C@H](N[C@@H](C(=O)O)[C@H](Cc1ccccc1)NC(=O)c1ccccc1)C(=O)N1CCC[C@H]1C(=O)O | 5.85 |
| C[C@H](N[C@H](C(=O)O)[C@@H]1CCCN1)C(=O)N1CCC[C@H]1C(=O)O | 6.15 |
